# According to US20110172217A1, “RING-FUSED MORPHOLINE DERIVATIVE HAVING PI3K-INHIBITING ACTIVITY” (Shionogi & Co., Ltd., priority 2008, published 2011):
# Target: PI-3 kinase γ (Homo sapiens, UniProt P48736)
# Test: PI3Kγ inhibitory activity, PI3-kinase HTRF assay (inhibition ratio)
# Assay type: biochemical
# Conditions: 0.5 h, compound at 50 μmol/L
# Description: For each compound synthesized in the above Examples, PI3Kγ inhibitory activity was measured.
# The PI3Kγ inhibitory activity of a compound was evaluated using PI3-kinase HTRF™ assay (Millipore) according to the following procedure:
# To each well of a testing plate, 5 μL of a compound solution containing 10% DMSO (200 μmol/L or 40 μmol/L as the concentration of the compound), 5 μL of a substrate solution (40 μmol/L phosphatidylinositol (4,5)-bisphosphate, 20 mmol/L MgCl2, 10 mmol/L DTT), and 5 μL of a enzyme solution (80 μg/mL PI-3 kinase γ, 10 mmol/L MgCl2, 5 mmol/L DTT) were added, and then allowed to stand for 10 minutes.
# Then, 5 μL of a reaction solution (40 μmol/L ATP, 10 mmol/L MgCl2, 5 mmol/L DTT) was added thereto. After reacting for 30 minutes at room temperature, 5 μL of a solution containing EDTA and biotinylated phosphatidylinositol (3,4,5)-triphosphate were added to quench the reaction.
# 5 μL of a detection reagent containing a europium-labeled anti-GST antibody, the GST-tagged PH domain, and allophycocyanin-labeled streptavidin was added thereto. After 18 hours, HTRF (excitation wavelength: 330 nm, measured wavelengths: 620 nm and 665 nm) was measured.
# HTRF ratio was defined as the value obtained by dividing the amount of fluorescence obtained at the measured wavelength 665 nm by the amount of fluorescence obtained at 620 nm. The HTRF ratio in the absence of a compound was defined as 100% activity and the HTRF ratio in the absence of PI-3 kinase γ was defined as 0% activity to calculate an inhibition ratio which was defined as the PI3Kγ inhibitory activity of a compound at 50 μmol/L or 10 μmol/L.
# PI-3 kinase γ, sequence (P48736 whole entry): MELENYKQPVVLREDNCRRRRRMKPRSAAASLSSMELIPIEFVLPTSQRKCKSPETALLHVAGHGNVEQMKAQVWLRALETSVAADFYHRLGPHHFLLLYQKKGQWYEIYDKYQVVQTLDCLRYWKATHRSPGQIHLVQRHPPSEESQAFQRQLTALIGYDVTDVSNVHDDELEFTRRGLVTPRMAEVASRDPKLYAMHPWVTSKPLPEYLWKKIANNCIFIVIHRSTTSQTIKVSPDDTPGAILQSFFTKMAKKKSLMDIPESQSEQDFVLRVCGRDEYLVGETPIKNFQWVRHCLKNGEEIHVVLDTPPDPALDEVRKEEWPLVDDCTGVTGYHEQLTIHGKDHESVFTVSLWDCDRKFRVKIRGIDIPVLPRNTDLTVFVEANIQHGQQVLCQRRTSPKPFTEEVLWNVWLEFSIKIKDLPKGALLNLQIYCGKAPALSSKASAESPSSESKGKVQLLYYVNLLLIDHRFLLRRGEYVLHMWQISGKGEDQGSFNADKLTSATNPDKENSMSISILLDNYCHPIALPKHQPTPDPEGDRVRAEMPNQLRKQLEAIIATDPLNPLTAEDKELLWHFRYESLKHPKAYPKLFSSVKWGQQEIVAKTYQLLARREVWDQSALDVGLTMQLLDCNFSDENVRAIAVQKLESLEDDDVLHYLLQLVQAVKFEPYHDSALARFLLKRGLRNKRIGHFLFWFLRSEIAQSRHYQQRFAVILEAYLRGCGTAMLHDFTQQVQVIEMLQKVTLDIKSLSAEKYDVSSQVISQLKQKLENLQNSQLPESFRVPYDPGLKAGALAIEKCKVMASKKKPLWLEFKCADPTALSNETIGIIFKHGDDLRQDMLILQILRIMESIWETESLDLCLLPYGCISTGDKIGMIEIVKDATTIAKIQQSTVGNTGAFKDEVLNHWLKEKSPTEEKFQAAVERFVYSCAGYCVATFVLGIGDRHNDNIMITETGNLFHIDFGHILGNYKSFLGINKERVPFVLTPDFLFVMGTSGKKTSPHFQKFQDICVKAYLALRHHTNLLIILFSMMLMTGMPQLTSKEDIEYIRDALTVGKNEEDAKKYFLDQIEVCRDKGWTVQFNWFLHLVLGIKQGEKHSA
row,Compound,inhibition at 50 µM
1,COC(=O)c1ccc(N(C)c2cnc3c(c2)OCCN3C(=O)Nc2ccccc2)cc1 [Compound I-243],77%
2,O=C(Nc1ccccc1)N1CCOc2cc(Nc3ccc(Oc4ccccc4)cc3)cnc21 [Compound I-322],78%
3,COc1cccc(NC(=O)N2CCOc3ccc(Nc4ccc(C(=O)O)cc4)nc32)c1 [Compound I-211],≥ 95%
4,O=C(Nc1ccccc1)N1CCOc2cc(N3CCNCC3)cnc21 [Compound I-246],≥ 95%
5,CC(C)(C)OC(=O)n1c(-c2cnc3c(c2)OCCN3C(=O)Nc2ccccc2)cc2ccccc21 [Compound I-283],85%
6,COC(=O)c1ccccc1Nc1ccc2c(n1)N(C(=O)Nc1ccccc1)CCO2 [Compound I-141],82%
7,CCN(CC)c1ccc(Nc2cnc3c(c2)OCCN3C(=O)Nc2ccccc2)cc1 [Compound I-310],≥ 95%
8,O=C(O)Cc1ccc(Nc2ccc3c(n2)N(C(=O)Nc2ccccc2)CCO3)cc1 [Compound I-225],≥ 95%
9,COC(=O)c1ccc(O)c(Nc2ccc3c(n2)N(C(=O)Nc2ccccc2)CCO3)c1 [Compound I-217],77%
10,NCCOc1cccc(Nc2ccc3c(n2)N(C(=O)Nc2ccccc2)CCO3)c1 [Compound I-222],≥ 95%
11,CC1CN(C(=O)Nc2ccccc2)c2nc(-c3ccc(C(=O)O)cc3)ccc2O1 (stereo not drawn) [Compound I-290],86%
12,CCOC(=O)N1CCC(NC(=O)N2CCOc3ccc(-c4ccc(C(=O)O)cc4)nc32)CC1 [Compound I-203],≥ 95%
13,CC(C)(C)OC(=O)NCCOc1ccccc1Nc1ccc2c(n1)N(C(=O)Nc1ccccc1)CCO2 [Compound I-215],≥ 95%
14,CCCCNS(=O)(=O)c1cccc(Nc2cnc3c(c2)OCCN3C(=O)Nc2ccccc2)c1 [Compound I-311],81%
15,COc1ccc2cc(-c3cnc4c(c3)OCCN4C(=O)Nc3ccccc3)[nH]c2c1 [Compound I-302],87%
16,S=C(Nc1cccnc1)N1CCOc2cccnc21 [Compound I-5],90%
17,CC1(Cc2ccccc2)SC(N2CCOc3cccnc32)=NC1=O (stereo not drawn) [Compound I-4],84%
18,O=C(Nc1ccccc1)N1CCOc2cc(Nc3ccc(S(=O)(=O)N4CCOCC4)cc3)cnc21 [Compound I-323],89%
19,O=C(Nc1ccccc1)N1CCOc2cc(Nc3ccc4ncccc4c3)cnc21 [Compound I-316],87%
20,O=C(Nc1ccccc1)N1CCOc2cc(Nc3ccc4ncsc4c3)cnc21 [Compound I-317],≥ 95%

row,Compound,inhibition at 50 µM
1,COC(=O)c1cccc(Nc2ccc3c(n2)N(C(=O)Nc2ccccc2)CCO3)c1 [Compound I-232],≥ 95%
2,CCOC(=O)Cc1ccc(Nc2ccc3c(n2)N(C(=O)Nc2ccccc2)CCO3)cc1 [Compound I-212],≥ 95%
3,O=C(Nc1ccccc1)N1CCOc2cc(-c3cnn(CCN4CCOCC4)c3)cnc21 [Compound I-293],≥ 95%
4,CNC(=O)c1cnc2c(c1)OCCN2C(=O)Nc1ccccc1 [Compound I-303],89%
5,COC(=O)c1ccc(-c2ccc(Nc3cnc4c(c3)OCCN4C(=O)Nc3ccccc3)cc2)cc1 [Compound I-321],76%
6,CC(C)(C)OC(=O)CNC(=O)c1cccc(Nc2ccc3c(n2)N(C(=O)Nc2ccccc2)CCO3)c1 [Compound I-272],≥ 95%
7,C=CCC1(C)SC(N2CCOc3cccnc32)=NC1=O (stereo not drawn) [Compound I-3],80%
8,CC(C)(C)OC(=O)COc1cccc(Nc2cnc3c(c2)OCCN3C(=O)Nc2ccccc2)c1 [Compound I-234],≥ 95%
9,O=C(O)CCNC(=O)c1cnc2c(c1)OCCN2C(=O)Nc1ccccc1 [Compound I-307],92%
10,COc1ccc(Nc2cnc3c(c2)OCCN3C(=O)Nc2ccccc2)cc1 [Compound I-313],92%
11,COC(=O)c1ccc(Nc2ccc3c(n2)N(C(=O)Nc2ccccc2)CCO3)cc1 [Compound I-229],≥ 95%
12,CC(C)(C)OC(=O)CNC(=O)c1ccc(Nc2ccc3c(n2)N(C(=O)Nc2ccccc2)CCO3)cc1 [Compound I-273],76%
13,N#Cc1ccc(Nc2cnc3c(c2)OCCN3C(=O)Nc2ccccc2)cc1 [Compound I-318],≥ 95%
14,O=C(O)c1cccc(Nc2ccc3c(n2)N(C(=O)Nc2ccccc2)CCO3)c1 [Compound I-147],≥ 95%
15,Cc1ccc(Nc2cnc3c(c2)OCCN3C(=O)Nc2ccccc2)cc1F [Compound I-319],92%
16,O=C(O)COc1ccc(Nc2cnc3c(c2)OCCN3C(=O)Nc2ccccc2)cc1 [Compound I-252],≥ 95%
17,COc1cccc(NC(=O)N2CCOc3nc(-c4ccc(C(=O)O)cc4)ccc32)c1 [Compound I-265],75%
18,NCCOc1cc(C(=O)O)ccc1Nc1ccc2c(n1)N(C(=O)Nc1ccccc1)CCO2 [Compound I-227],≥ 95%
19,O=C(O)c1ccc(NC(=O)c2ccc3c(n2)N(C(=O)Nc2ccccc2)CCO3)cc1 [Compound I-40],80%
20,C#CCC1(C)SC(N2CCOc3cccnc32)=NC1=O (stereo not drawn) [Compound I-7],75%

# The remaining lines, values ahead:
row,inhibition at 50 µM,Compound
1,73%,COc1ccc(-c2ccc3c(n2)N(C(=O)Nc2ccccc2)CCO3)cc1 [Compound I-98]
2,86%,O=C(O)c1ccc(Nc2ccc3c(n2)N(C(=O)Nc2ccccc2)CCO3)nc1 [Compound I-183]
3,72%,O=C(Nc1ccccc1)N1CCOc2ccc(-c3ncco3)nc21 [Compound I-84]
4,≥ 95%,O=C(Nc1ccccc1)N1CCOc2ccc(Nc3ccncc3)nc21 [Compound I-182]
5,88%,O=C(O)c1ccc(-c2cnc3c(c2)OCCN3C(=O)Nc2ccccc2)s1 [Compound I-285]
6,≥ 95%,COc1ccc(-c2ccc3c(n2)N(C(=O)Nc2ccccc2)CCO3)cc1OC [Compound I-99]
7,91%,CC(C)CCc1ccc2c(n1)N(C(=O)Nc1ccccc1)CCO2 [Compound I-88]
8,≥ 95%,Cn1cc(-c2ccc3c(n2)N(C(=O)Nc2ccccc2)CCO3)cn1 [Compound I-190]
9,≥ 95%,O=C(O)c1cccc(-c2ccc3c(n2)N(C(=O)Nc2ccccc2)CCO3)c1 [Compound I-104]
10,83%,Cc1n[nH]c(C)c1-c1ccc2c(n1)N(C(=O)Nc1ccccc1)CCO2 [Compound I-189]
11,89%,O=C(Nc1ccccc1)N1CCOc2cccnc21 [Compound I-2]
12,≥ 95%,O=C(Nc1ccccc1)N1CCOc2ccc(-c3cncnc3)nc21 [Compound I-106]
13,≥ 95%,O=C(Nc1ccccc1)N1CCOc2ccc(Nc3ccccn3)nc21 [Compound I-180]
14,81%,O=C(Nc1ccccc1)N1CCOc2ccc(Nc3ccccc3)nc21 [Compound I-144]
15,≥ 95%,O=C(Nc1ccccc1)N1CCOc2cc(-c3ccc[nH]3)cnc21 [Compound I-274]
16,≥ 95%,COC(=O)c1cncc(-c2ccc3c(n2)N(C(=O)Nc2ccccc2)CCO3)c1 [Compound I-249]

row,inhibition at 50 µM,Compound
1,82%,CN1CCOc2cc(-c3ccc4c(n3)N(C(=O)Nc3ccccc3)CCO4)ccc21 [Compound I-77]
2,73%,NC(=O)c1ccc(-c2ccc3c(n2)N(C(=O)Nc2ccccc2)CCO3)cc1 [Compound I-69]
3,94%,COC(=O)c1cccc(-c2ccc3c(n2)N(C(=O)Nc2ccccc2)CCO3)c1 [Compound I-103]
4,≥ 95%,CC(=O)Nc1cnc2c(c1)OCCN2C(=O)Nc1ccccc1 [Compound I-173]
5,≥ 95%,O=C(Nc1ccccc1)N1CCOc2ccc(-c3ccoc3)nc21 [Compound I-101]
6,≥ 95%,CCOC(=O)CCCc1ccc2c(n1)N(C(=O)Nc1ccccc1)CCO2 [Compound I-89]
7,71%,O=C(Nc1ccccc1)N1CCOc2cc(-c3cc[nH]n3)cnc21 [Compound I-269]
8,90%,O=C(O)c1ccc(-c2ccc3c(n2)N(C(=O)Nc2ccncc2)CCO3)cc1 [Compound I-209]
9,76%,Nc1ccc(-c2ccc3c(n2)N(C(=O)Nc2ccccc2)CCO3)cn1 [Compound I-185]
10,≥ 95%,O=C(O)CC(=O)Nc1ccc2c(n1)N(C(=O)Nc1ccccc1)CCO2 [Compound I-123]
11,81%,O=C(Nc1ccccc1)N1CCOc2ccc(N3CCOCC3)nc21 [Compound I-207]
12,≥ 95%,O=C(O)CCCc1ccc2c(n1)N(C(=O)Nc1ccccc1)CCO2 [Compound I-95]
13,75%,O=C(Nc1ccccc1)N1CCOc2ccc(Cc3ccccc3)nc21 [Compound I-87]
14,≥ 95%,O=C(Nc1ccccc1)N1CCOc2ccc(-c3ccncc3)nc21 [Compound I-107]
15,94%,Nc1cnc2c(c1)OCCN2C(=O)Nc1ccccc1 [Compound I-148]
16,≥ 95%,Cc1cc(C(=O)O)ccc1-c1ccc2c(n1)N(C(=O)Nc1ccccc1)CCO2 [Compound I-230]
